Patent US11472791B2 (Incyte Corporation, priority 2019, dated 2022)

biological target: CDK2/Cyclin E1 (Homo sapiens (Human), UniProt P24941); experiment: CDK2/Cyclin E1 HTRF enzyme activity assay; assay type: biochemical; conditions: 1 mM ATP
Procedure: Assays are conducted in white 384-well polystyrene plates in a final reaction volume of 8 μL. […] HTRF signals are read after 1 hour at room temperature on a PHERAstar FS plate reader (BMG Labtech). Data is analyzed with IDBS XLFit and GraphPad Prism 5.0 software using a three or four parameter dose response curve to determine IC50 for each compound.

IC50, < 50 nM:
Cc1cc(CN2CCN(C)[C@@H](CC#N)C2)ccc1-n1cc(-c2nc(NC3CCN(S(=O)(=O)c4cn(C)cn4)CC3)ncc2C(F)(F)F)cn1 [Example 230, (S)-2-(1-Methyl-4-(3-methyl-4-(4-(2-((1-((1-methyl-1H-imidazol-4-yl)sulfonyl)piperidin-4-yl)amino)-5-(trifluoromethyl)pyrimidin-4-yl)-1H-pyrazol-1-yl)benzyl)piperazin-2-yl)acetonitrile]
Cc1cc(CN2CCN(C)CC2)ccc1-n1cc(-c2nc(NC3CCN(S(C)(=O)=O)CC3)ncc2C(F)(F)F)cn1 [Example 231, 4-(1-(2-Methyl-4-((4-methylpiperazin-1-yl)methyl)phenyl)-1H-pyrazol-4-yl)-N-(1-(methylsulfonyl)piperidin-4-yl)-5-(trifluoromethyl)pyrimidin-2-amine]
CCN1CCN(Cc2ccc(-n3cc(-c4nc(NC5CCN(S(C)(=O)=O)CC5)ncc4C(F)(F)F)cn3)c(C)c2)CC1 [Example 232, 4-(1-(4-((4-Ethylpiperazin-1-yl)methyl)-2-methylphenyl)-1H-pyrazol-4-yl)-N-(1-(methylsulfonyl)piperidin-4-yl)-5-(trifluoromethyl)pyrimidin-2-amine]
CCS(=O)(=O)N1CCC(Nc2ncc(C(F)(F)F)c(-c3cnn(-c4ccc(CN5CCN(C)CC5)cc4C)c3)n2)CC1 [Example 233, N-(1-(Ethylsulfonyl)piperidin-4-yl)-4-(1-(2-methyl-4-((4-methylpiperazin-1-yl)methyl)phenyl)-1H-pyrazol-4-yl)-5-(trifluoromethyl)pyrimidin-2-amine]
Cc1cc(CN2CCN(C)CC2)ccc1-n1cc(-c2nc(NC3CCN(S(=O)(=O)C4CC4)CC3)ncc2C(F)(F)F)cn1 [Example 234, N-(1-(Cyclopropylsulfonyl)piperidin-4-yl)-4-(1-(2-methyl-4-((4-methylpiperazin-1-yl)methyl)phenyl)-1H-pyrazol-4-yl)-5-(trifluoromethyl)pyrimidin-2-amine]
CCN1CCN(Cc2ccc(-n3cc(-c4nc(NC5CCN(S(=O)(=O)c6cn(C)cn6)CC5)ncc4C(F)(F)F)cn3)c(C)c2)CC1 [Example 235, 4-(1-(4-((4-Ethylpiperazin-1-yl)methyl)-2-methylphenyl)-1H-pyrazol-4-yl)-N-(1-((1-methyl-1H-imidazol-4-yl)sulfonyl)piperidin-4-yl)-5-(trifluoromethyl)pyrimidin-2-amine]
Cc1cc(CN2CCN(CC3CC3)CC2)ccc1-n1cc(-c2nc(NC3CCN(S(=O)(=O)c4cn(C)cn4)CC3)ncc2C(F)(F)F)cn1 [Example 236, 4-(1-(4-((4-(Cyclopropylmethyl)piperazin-1-yl)methyl)-2-methylphenyl)-1H-pyrazol-4-yl)-N-(1-((1-methyl-1H-imidazol-4-yl)sulfonyl)piperidin-4-yl)-5-(trifluoromethyl)pyrimidin-2-amine]
Cc1cc(CN2CCN(C)C(=O)C2)ccc1-n1cc(-c2nc(NC3CCN(S(=O)(=O)c4cn(C)cn4)CC3)ncc2C(F)(F)F)cn1 [Example 237, 1-Methyl-4-(3-methyl-4-(4-(2-((1-((1-methyl-1H-imidazol-4-yl)sulfonyl)piperidin-4-yl)amino)-5-(trifluoromethyl)pyrimidin-4-yl)-1H-pyrazol-1-yl)benzyl)piperazin-2-one]
CCN1CCN(Cc2ccc(-n3cc(-c4nc(NC5CCN(S(C)(=O)=O)CC5)ncc4C#N)cn3)c(Cl)c2)CC1 [Example 238, 4-(1-(2-Chloro-4-((4-ethylpiperazin-1-yl)methyl)phenyl)-1H-pyrazol-4-yl)-2-((1-(methylsulfonyl)piperidin-4-yl)amino)pyrimidine-5-carbonitrile]
CCS(=O)(=O)N1CCC(Nc2ncc(C#N)c(-c3cnn(-c4ccc(CN5CCN(C)CC5)cc4Cl)c3)n2)CC1 [Example 239, 4-(1-(2-chloro-4-((4-methylpiperazin-1-yl)methyl)phenyl)-1H-pyrazol-4-yl)-2-((1-(ethylsulfonyl)piperidin-4-yl)amino)pyrimidine-5-carbonitrile]
CN1CCN(Cc2ccc(-n3cc(-c4nc(NC5CCN(S(C)(=O)=O)CC5)ncc4C#N)cn3)c(Cl)c2)CC1=O [Example 240, 4-(1-(2-Chloro-4-((4-methyl-3-oxopiperazin-1-yl)methyl)phenyl)-1H-pyrazol-4-yl)-2-((1-(methylsulfonyl)piperidin-4-yl)amino)pyrimidine-5-carbonitrile]
CCN1CCN(Cc2ccc(-n3cc(-c4nc(NC5CCN(S(=O)(=O)c6cn(C)cn6)CC5)ncc4C#N)cn3)c(Cl)c2)CC1 [Example 241, 4-(1-(2-Chloro-4-((4-ethylpiperazin-1-yl)methyl)phenyl)-1H-pyrazol-4-yl)-2-((1-((1-methyl-1H-imidazol-4-yl)sulfonyl)piperidin-4-yl)amino)pyrimidine-5-carbonitrile]
Cc1cc(CN2CCN(C)CC2)ccc1-n1cc(-c2nc(NC3CCN(S(=O)(=O)C4CC4)CC3)ncc2C#N)cn1 [Example 242, 2-((1-(Cyclopropylsulfonyl)piperidin-4-yl)amino)-4-(1-(2-methyl-4-((4-methylpiperazin-1-yl)methyl)phenyl)-1H-pyrazol-4-yl)pyrimidine-5-carbonitrile]
Cc1cc(CN2CCN(C)CC2)ccc1-n1cc(-c2nc(NC3CCN(S(=O)(=O)c4cn(C)cn4)CC3)ncc2C#N)cn1 [Example 243, 2-((1-((1-Methyl-1H-imidazol-4-yl)sulfonyl)piperidin-4-yl)amino)-4-(1-(2-methyl-4-((4-methylpiperazin-1-yl)methyl)phenyl)-1H-pyrazol-4-yl)pyrimidine-5-carbonitrile]
CN1CCN(Cc2ccc(-n3cc(-c4nc(NC5CCN(S(=O)(=O)c6cn(C)cn6)CC5)ncc4Cl)cn3)c(C#N)c2)CC1 [Example 244, 2-(4-(5-Chloro-2-((1-((1-methyl-1H-imidazol-4-yl)sulfonyl)piperidin-4-yl)amino)pyrimidin-4-yl)-1H-pyrazol-1-yl)-5-((4-methylpiperazin-1-yl)methyl)benzonitrile]
CCN1CCN(Cc2ccc(-n3cc(-c4nc(NC5CCN(S(=O)(=O)c6cn(C)cn6)CC5)ncc4Cl)cn3)c(C)c2)CC1 [Example 245, 5-Chloro-4-(1-(4-((4-ethylpiperazin-1-yl)methyl)-2-methylphenyl)-1H-pyrazol-4-yl)-N-(1-((1-methyl-1H-imidazol-4-yl)sulfonyl)piperidin-4-yl)pyrimidin-2-amine]
Cc1cc(CN2CCN(CC3CC3)CC2)ccc1-n1cc(-c2nc(NC3CCN(S(=O)(=O)c4cn(C)cn4)CC3)ncc2Cl)cn1 [Example 246, 5-Chloro-4-(1-(4-((4-(cyclopropylmethyl)piperazin-1-yl)methyl)-2-methylphenyl)-1H-pyrazol-4-yl)-N-(1-((1-methyl-1H-imidazol-4-yl)sulfonyl)piperidin-4-yl)pyrimidin-2-amine]
